Structures can show the parent of a compound that is named as a salt.
Tests used:
[1] = Drug uptake into EPC large unilamellar vesicles with proton gradient; assay type: physicochemical; details: 300 mM citric acid pH 4.0 inside, pH 7.5 outside; for encapsulation by the vesicles: EPC LUVs (100 nm filters), 25°C
Procedure: Egg phosphatidylcholine (15 mg) was dispersed in 2 ml of 300 mM citric acid, pH 4.0 and the resulting MLVs frozen in liquid nitrogen and thawed in warm water (approximately 35°C) a total of five times. The lipid was then extruded 10 times through two stacked 100 nm pore size polycarbonate filters using the LUVET procedure. A proton gradient was created by passage of the vesicles over a Sephadex G-50 (fine) column (1.5 cm x 10 cm) preequilibrated with 300 mM NaCl, 20 mM HEPES, pH 7.5. An aliquot of the large unilamellar vesicles eluted from the column was diluted in 300 mM NaCl, […], pH 7.5 to a lipid concentration of 0.75 mgml^-1 in a total volume of 2 ml and then daunorubicin (113 ug) added from a stock solution (5.64 mgml^-1) in distilled water. The mixture was incubated at room temperature (25°C) and at intervals of 2, 10, 20, 30, 60 and 120 minutes, 100 ul aliquots were centrifuged through 1 ml "minicolumns" of Sephadex G-50 (fine) to remove any unencapsulated daunorubicin from the vesicles. The concentration of entrapped daunorubicin was determined from its absorbance at 500 nm in a Shimadzu UV-265 spectrophotometer following solubilization of the vesicles in 1% Triton X-100. Lipid was quantified by liquid scintillation counting using tracer levels of ^3H-DPPC. In excess of 98% of the daunorubicin was encapsulated by the vesicles giving a drug to lipid molar ratio of 1:5.
(§1) The materials and procedures of Example 30 were employed except that epirubicin (116 ug) was addded to the vesicle suspension (2 ml) from a stock solution (5.8 mgml^-1). Epirubicin uptake was quantified from its absorbance at 500 nm following solubilization of the vesicles in 1% Triton X-100. Epirubicin encapsulation by the vesicles was in excess of 98% giving a drug to lipid molar ratio of 1:5.
as §1, with “mitoxanthrone (103” for “epirubicin (116”, “added” for “addded”, “(2” for “(5.8”, “Mitoxantrone” for “Epirubicin”, “670” for “500”, “2%” for “1%”
The materials and procedures of Example 30 were employed except that cisplatin (200 uM) was combined with the liposome suspension.

ascites L1210 tumor line = test: Antitumor activity of vincristine, L1210 lymphocytic leukemia model; assay type: in vivo, DBA/2J mice; details: L1210 model in mice
Procedure: The antitumor activity of free and liposomal vincristine was assessed employing an L1210 lymphocytic leukemia model. DBA/2J mice (6 mice per group) were injected i.p. with 1 X 10^6 L1210 cells derived from the ascites fluid of a previously infected mouse. Liposomal vincristine made according to Example 27 was administered i.v. at various times after tumor innoculation and animal weights as well as mortality rates were monitored.
The above example was repeated by administering free vincristine and empty liposomes.

[2] = Vincristine trapping efficiency, pH gradient loading; assay type: physicochemical; details: DSPC/cholesterol (55:45) liposomes, 300 mM citric acid pH 4.0, 200 nm filter, drug to lipid approximately 0.17:1, external pH about 7.0, 60°C for 10 minutes
Procedure: These MLVs (100 mg total lipid/ml buffer) were extruded 10 times through a 200 nm pore size polycarbonate filter in a thermojacket LUVET heated to 60°C. Liposomes were added to a solution of 1 mg/ml vincristine sulfate (Oncovin, available from Eli Lilly and Co., Indianapolis, IN) to achieve a drug to total lipid weight ratio of approximately 0.17:1. To this was added a sufficient amount of 1.0 M Na2HPO4 to bring the pH of the solution to about 7.0. The samples were then heated at 60°C for 10 minutes at which time the drug was encapsulated inside the liposomes at a trapping efficiency in excess of 98%.
The above was repeated using EPC/cholesterol and HSPC/cholesterol.

[3] = In vitro release of doxorubicin from liposomes under dialysis; assay type: physicochemical; details: vesicles containing 300 mM citrate (pH 4.0), drug to lipid (wt/wt) ratio 1:10 to 1:3, over 24 hours
Procedure: The materials and-procedures of Example 6 were employed to determine the in vitro stability of the liposome-doxorubicin preparations. Release experiments were performed as follows: 10-fold dilute liposome samples were dialyzed for 24 hours against 1000 volumes of 20 mM HEPES, 150 mM NaCl (pH 7.5) at 37°C. At 1, 2, 4, 8, 10, and 24 hours post-preparation, a 150 ul aliquot was removed and the entrapped doxorubicin was determined.
EPC/cholesterol (55/45 mole ratio) was dried from chloroform to a thin film on a 500 ml capacity round bottom flask (400 mg total lipid). The film was hydrated with 4.0 ml of 300 mM citric acid at pH 4.0, forming MLVs. These MLVs were extruded through 2 stacked 0.22 um Nucleopore membrafil filters followed by extrusion 10 times through a 0.1 um Nucleopore membrafil (tortuous path) filter. To 1.0 ml of the resulting filtrate sample was added 275 ul of 1M Na2CO3, which raised the exterior pH to 8.3. An aliquot (0.6 ml) was heated for 3 minutes at 60°C, as was a 10 mg sample of doxorubicin. The liposome aliquot was added to the 10 mg doxorubicin and heated at 60°C for 5 minutes. The sample was divided into 2 parts. […] At 1 hour, a 150 ul aliquot was removed and analyzed for doxorubicin and lipid phosphate as previously described, after passage down a 1.0 ml Sephadex column equilibrated in the respective buffer. […]

[4] = Doxorubicin entrapment (trapping) efficiency, transmembrane pH gradient loading; assay type: physicochemical
Procedure: In order to determine whether an ionizable antineoplastic agent will load into liposomes in response to a transmembrane pH gradient, EPC-containing liposomes are made (about 1.0 mM EPC) with a ^3H-DPPC tracer and with a relatively acidic or basic internal medium such as 300 mM citric acid at about pH 4.0. These liposomes are extruded about 10 times according to the LUVET procedure through 2 100 nm filters, followed by adjustment of the external pH to a relatively basic or acidic pH, for example, sodium carbonate, at about pH 11.0. Following the formation of the pH gradient, the agent to be loaded, spiked with a radioactive isotope of the agent, is admixed with the liposomes to about 200 uM (per 1.0 mM lipid used). The liposomes are separated from free, unentrapped agent on G50-M Sephadex minicolumns at 500 X g for 3 minutes into 13 X 100 mm tubes, and radioactivity counted in a scintillation counter. Uptake of the drug in nmoles per umole of lipid is then plotted over incubation time. One hundred percent of the available doxorubicin is taken up into liposomes under these conditions.
In the case of doxorubicin, commercially available forms, such as powdered, solid, and methylparaben-containing forms (Adriamycin R.D.F., Adria Laboratories, Inc., Columbus, Ohio) may be used in the invention. When the methylparaben-containing form is employed, an aqueous solution such as saline may be added to that form, thereby dissolving it, followed by the admixing of this suspension with the liposomes which have the transmembrane pH gradient across their bilayers. Such admixing at 60°C for about 10 minutes results in more than about 98% encapsulation of the doxorubicin.
To determine entrapment efficiency of the liposome preparations, free and liposome encapsulated doxorubicin was monitored spectrophotometrically employing a Shimadzu UV-160 spectrophotometer as follows: the liposomal-doxorubicin samples were diluted with 20 mM Hepes, 250 mM NaCl (pH 7.5) to achieve approximate doxorubicin concentrations between 0.05-0.10 mM. The following sequence of measurements was made; (1) the absorbance at 600 nm of the diluted sample was adjusted to zero; (2) the sample was alkalinized to pH 10.5 with 1.0 N NaOH (0.02 ml/1.0 ml of sample) and the absorbance at 600 nm was recorded within 2 minutes; (3) the spectrophotometer was zeroed against a 0.2% Triton X-100 solution, and (4) the absorbance at 600 nm of the liposomal-doxorubicin sample to which Triton X-100 had been added (0.02 ml 20% Triton X-100 wt./wt./1.0 ml of sample) was determined. Free:total doxorubicin ratios were calculated as the absorbance at 600 nm upon NaOH addition divided by the absorbance after Triton X-100 addition.
To relate the pH-dependent spectral response technique to actual free and trapped drug levels, vesicle entrapped doxorubicin was determined as follows: A small aliquot of the liposomal-doxorubicin solution was passed down Sephadex G-50 gel columns equilibrated in 20 mM Hepes, 150 mM NaCl (pH 7.5) to separate free from liposome-associated drug. The liposome-containing eluant as well as aliquots of the original solutions were assayed for phospholipid and doxorubicin by phosphorus analysis and optical density at 480 nm, respectively as previously described in Mayer et al., (1986), Biochim Biophys. Acta., 857:123.
The materials and procedures of Example 3 were employed, but entrapment efficiency of liposome encapsulated doxorubicin was monitored by comparison of the color resulting from addition of an aliquot (0.2 ml) of the liposomes to 1.0 N NaOH to a color chart.
After completion of the entrapment procedure according to Example 6, 20 ul of the doxorubicin-liposomes were diluted to 200 ul with 20 mM HEPES, 150 mM NaCl (pH 7.5). An aliquot of this diluted sample (20 ul) was assayed for lipid phosphate by the procedure of Bartlett, J. Biol. Chem. 1959, 234:466-468. […]

SC-115 cells = test: SC-115 tumor growth in Shinogi mice; assay type: in vivo, Male Shinogi mice; details: SC-115 tumor, 3.25, 6.5 and 13 mg/kg i.v., 3 injections at seven day intervals
Procedure: Male Shinogi mice (25-40g, 9 per group) were injected subcutaneously with 1X10^5 SC-115 cells obtained from a primary tumor in previously inoculated mice. Tumor growth was monitored by palpation and tumor measurements with a vernier caliper. Upon growth of the tumor to 0.5-2.0 g (tumor weight = [width^2 x length]/2, measurements in mm), mice were administered liposomal doxorubicin dose of 13 mg/kg i.v. at seven day intervals (3 injections of the indicated dose). Tumor growth was monitored 3 times weekly for 50 days post first treatment or until the tumor weight exceeded 9 g at which time the animal was sacrificed. Treatment doses were based on the initial animal weights prior to tumor inoculation.
The above procedure was repeated and the mice were administered saline or empty liposomes (administered at a dose equivalent to that given for a liposomal doxorubicin dose of 13 mg/kg).
The above procedure was repeated at 3.25 mg/kg dose and 6.5 mg/kg dose for free and liposomal doxorubicin.

## COc1cccc2c1C(=O)c1c(O)c3c(c(O)c1C2=O)C[C@@](O)(C(C)=O)C[C@@H]3O[C@H]1C[C@H](N)[C@H](O)[C@H](C)O1 [daunorubicin]
[1]
  encapsulation by the vesicles: > 98%

## CC[C@]1(O)C[C@H]2CN(CCc3c([nH]c4ccccc34)[C@@](C(=O)OC)(c3cc4c(cc3OC)N(C=O)[C@H]3[C@@](O)(C(=O)OC)[C@H](OC(C)=O)[C@]5(CC)C=CCN6CC[C@]43[C@@H]65)C2)C1 [vincristine, vincristine sulfate]
Ascites L1210 tumor line
  efficacy against the ascites L1210 tumor line: no efficacy
[2]
  trapping efficiency: > 98%

## O=C1c2c(O)ccc(O)c2C(=O)c2c(NCCNCCO)ccc(NCCNCCO)c21 [Mitoxantrone, mitoxanthrone]
[1]
  encapsulation by the vesicles: > 98%

## N.N.[Cl][Pt][Cl] [Cisplatin, cisplatin]
[1]; EPC LUVs, 200 uM drug
  accumulation into liposomes by the transmembrane pH gradient: not accumulated

## COc1cccc2c1C(=O)c1c(O)c3c(c(O)c1C2=O)C[C@@](O)(C(=O)CO)C[C@@H]3O[C@H]1C[C@H](N)[C@H](O)[C@H](C)O1 [doxorubicin]
[3]
  drug released: less than 5%
[4]; EPC liposomes (about 1.0 mM), 300 mM citric acid pH 4.0 inside, 100 nm filters, external sodium carbonate, about 200 uM agent
  available doxorubicin taken up into liposomes: One hundred
[4]; Example 14: HSPC/cholesterol 2.4:1 weight ratio, 300 mM citric acid pH 4.0, 0.2 um filter, external pH 8.5, 15 minutes at 60°C, color test
  trapping efficiency: greater than 95%
[4]; Example 21: DSPC liposomes, 300 mM citric acid pH 4.0, 0.2 um filters, external pH 7.8, drug to lipid ratio 0.25:1, 60°C for 5 minutes
  entrapment efficiency: greater than 95%
[4]; Example 26: EPC/cholesterol (55:45 mol ratio), methods of Example 2
  drug entrapped by the liposomes: Greater than 98%
[4]; methylparaben-containing form (Adriamycin R.D.F.) dissolved in saline, admixed with pH gradient liposomes at 60°C for about 10 minutes
  encapsulation of the doxorubicin: more than 98%
[4]; vesicles containing 300 mM citrate (pH 4.0), drug to lipid (wt/wt) ratio between 1:10 and 1:3
  entrapment: about 100%
[4]; vesicles, drug to lipid ratios (wt/wt) 0.1:1 to 0.3:1, neutral, negatively charged or saturated phospholipids, varying cholesterol
  trapping efficiencies: about 100%
SC-115 cells
  tumor growth inhibition: dose dependent tumor growth inhibition

## COc1cccc2c1C(=O)c1c(O)c3c(c(O)c1C2=O)C[C@@](O)(C(=O)CO)C[C@@H]3O[C@H]1C[C@H](N)[C@@H](O)[C@H](C)O1 [Epirubicin, epirubicin]
[1]
  encapsulation by the vesicles: > 98%

From patent EP0719546B1, “LUV comprising saturated phospholipids and method of making the same” (THE LIPOSOME COMPANY, INC., priority 1987, dated 1988)
